Experimental data reported in US10010558B2, “Frankiamicin A compositions and methods” (STC.UNM, priority 2015, dated 2018).
Like-named read-outs stand apart in the source and are kept apart here.

Columns and labels:
Type in all cases: cell-based
He = assay: Anticancer MTT viability assay, He cells; conditions: He cancer cell line, 48 hours incubation, 0-100 μM
MC = assay: Anticancer MTT viability assay, MC cells; conditions: MC cancer cell line, 48 hours incubation, 0-100 μM
Jurk = assay: Anticancer MTT viability assay, Jurk cells; conditions: Jurk cancer cell line, 48 hours incubation, 0-100 μM
C. albicans = assay: Antimicrobial MTT viability assay, C. albicans; conditions: 0-100 μM
T. cruzi (ATCC 30013) = assay: T. cruzi viability assay by microscopy; conditions: 100 μM frankiamicin A, eight days
S. pyogenes = assay: Antimicrobial MTT viability assay, S. pyogenes
A. baumanii = assay: Antimicrobial MTT viability assay, A. baumanii
P. aeruginosa = assay: Antimicrobial MTT viability assay, P. aeruginosa
Y. pestis = test system: Y. pestis
S. aureus = assay: Antimicrobial MTT viability assay, S. aureus; conditions: for MIC: S. aureus
Experimental: Antimicrobial and anticancer assays were conducted by quantifying viability of cells exposed to frankiamicin A (2-fold serial diluted in DMSO) at concentrations ranging from 0-100 μM using an MTT assay (Frolova et al., 2013, J Med Chem 56:6886-6900). For antimicrobial assays, a liquid culture of each test strain was grown overnight at 37° C. in TSB media in a rotary incubator. The resulting culture was diluted 1:100 into fresh media and 100 μL aliquots were transferred to a 96-well plate. Serial diluted compound was added to individual wells and cells were incubated at 37° C. for either 6 hours or 18 hours prior to MTT assay. Anticancer assays were conducted using approximately 4000 cells incubated overnight at 37° C. in 100 μL DMEM media supplemented with 10% FBS, adding serial diluted compound, and incubating for 48 hours prior to MTT assay. Assays of T. cruzi (ATCC 30013) were conducted by growing cells unshaken at 25° C. in ATCC Medium 1029 (LIT Medium) for five days, diluting 1:10 into fresh media, adding 100 μM frankiamicin A, incubating for an additional eight days, and assessing cell viability by microscopy using an untreated control for comparison.

[1] = test system: methicillin-resistant S. aureus (MRSA); assay: Antimicrobial MTT viability assay, MRSA; conditions: for MIC: MRS(A)

frankiamicin A
IC50 (He): > 1000 nM
IC50 (MC): > 1000 nM
IC50 (Jurk): > 1000 nM
IC50 (C. albicans): > 1000 nM
IC50 (T. cruzi (ATCC 30013)): > 1000 nM
MIC (S. pyogenes; assessed after 6 h incubation): >1 µM
MIC (S. pyogenes; assessed after 18 h incubation): >1 µM
MIC (A. baumanii; assessed after 6 h incubation): >1 µM
MIC (A. baumanii; assessed after 18 h incubation): >1 µM
MIC (P. aeruginosa; assessed after 6 h incubation): >1 µM
MIC (P. aeruginosa; assessed after 18 h incubation): >1 µM
MIC (Y. pestis; assessed after 6 h incubation): >1 µM
MIC (Y. pestis; assessed after 18 h incubation): >1 µM
MIC (S. aureus; assessed after 6 h incubation): ~1 µM
MIC (S. aureus; assessed after 18 h incubation): >1 µM
antimicrobial activity (S. aureus; wild-type S. aureus): detectable antimicrobial activity
MIC ([1]; assessed after 6 h incubation): ~
MIC ([1]; assessed after 18 h incubation): >1 µM
antimicrobial activity ([1]; methicillin-resistant S. aureus (MRSA)): detectable antimicrobial activity
